Data as given in article PMC12406203 (Journal of Medicinal Chemistry, 2025).

Key:
Assay in all cases: KINOMEscan
Assay type in all cases: binding
[1] = biological target: T1, PDGFRB (Homo sapiens, UniProt P09619)
T1 construct: purchased Eurofins DiscoverX, LLC; host or cells: E. coli BL21-derived host (T7 phage) or HEK-293

[2] = biological target: T2, MAP3K4 (Homo sapiens, UniProt Q9Y6R4)
T2 construct: purchased Eurofins DiscoverX, LLC; host or cells: E. coli (BL21-derived, T7 phage) or HEK-293

[3] = biological target: T3, PDPK1 (Homo sapiens, UniProt O15530)
T3 construct: purchased Eurofins DiscoverX, LLC; host or cells: E. coli BL21-derived host (T7 phage) or HEK-293
T3 sequence (O15530 1-556): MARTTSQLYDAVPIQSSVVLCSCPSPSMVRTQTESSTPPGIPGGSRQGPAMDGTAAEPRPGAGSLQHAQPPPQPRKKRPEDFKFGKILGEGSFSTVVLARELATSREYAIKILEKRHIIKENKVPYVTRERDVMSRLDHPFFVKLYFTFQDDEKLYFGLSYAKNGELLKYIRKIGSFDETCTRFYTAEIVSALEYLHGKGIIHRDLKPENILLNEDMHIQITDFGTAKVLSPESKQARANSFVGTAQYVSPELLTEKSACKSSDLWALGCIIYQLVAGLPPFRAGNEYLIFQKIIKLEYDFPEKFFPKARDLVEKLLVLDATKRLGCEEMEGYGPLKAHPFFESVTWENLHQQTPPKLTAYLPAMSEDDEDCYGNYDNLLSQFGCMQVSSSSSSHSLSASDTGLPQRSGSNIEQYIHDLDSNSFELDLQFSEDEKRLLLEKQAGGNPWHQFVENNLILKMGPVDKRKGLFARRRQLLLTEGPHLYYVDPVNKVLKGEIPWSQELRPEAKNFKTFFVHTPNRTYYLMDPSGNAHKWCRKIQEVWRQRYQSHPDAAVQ

[4] = biological target: T4, PAK2 (Homo sapiens, UniProt Q13177)
T4 construct: purchased Eurofins DiscoverX, LLC; host or cells: E. coli (BL21-derived, T7 phage) or HEK-293

[5] = biological target: T5, PIK3CG (Homo sapiens, UniProt P48736)
T5 construct: purchased Eurofins DiscoverX, LLC; host or cells: E. coli BL21-derived host (T7 phage) or HEK-293

[6] = biological target: T6, JNK3 (Homo sapiens, UniProt P53779)
T6 construct: purchased Eurofins DiscoverX, LLC; host or cells: E. coli (BL21-derived, T7 phage) or HEK-293

[7] = biological target: T7, RAF1 (Homo sapiens, UniProt P04049)
T7 construct: purchased Eurofins DiscoverX, LLC; host or cells: E. coli BL21-derived host (T7 phage) or HEK-293

[8] = biological target: T8, IKKβ (Homo sapiens, UniProt O14920)
T8 construct: purchased Eurofins DiscoverX, LLC; host or cells: E. coli (T7 phage) or HEK-293
T8 sequence (O14920 1-756): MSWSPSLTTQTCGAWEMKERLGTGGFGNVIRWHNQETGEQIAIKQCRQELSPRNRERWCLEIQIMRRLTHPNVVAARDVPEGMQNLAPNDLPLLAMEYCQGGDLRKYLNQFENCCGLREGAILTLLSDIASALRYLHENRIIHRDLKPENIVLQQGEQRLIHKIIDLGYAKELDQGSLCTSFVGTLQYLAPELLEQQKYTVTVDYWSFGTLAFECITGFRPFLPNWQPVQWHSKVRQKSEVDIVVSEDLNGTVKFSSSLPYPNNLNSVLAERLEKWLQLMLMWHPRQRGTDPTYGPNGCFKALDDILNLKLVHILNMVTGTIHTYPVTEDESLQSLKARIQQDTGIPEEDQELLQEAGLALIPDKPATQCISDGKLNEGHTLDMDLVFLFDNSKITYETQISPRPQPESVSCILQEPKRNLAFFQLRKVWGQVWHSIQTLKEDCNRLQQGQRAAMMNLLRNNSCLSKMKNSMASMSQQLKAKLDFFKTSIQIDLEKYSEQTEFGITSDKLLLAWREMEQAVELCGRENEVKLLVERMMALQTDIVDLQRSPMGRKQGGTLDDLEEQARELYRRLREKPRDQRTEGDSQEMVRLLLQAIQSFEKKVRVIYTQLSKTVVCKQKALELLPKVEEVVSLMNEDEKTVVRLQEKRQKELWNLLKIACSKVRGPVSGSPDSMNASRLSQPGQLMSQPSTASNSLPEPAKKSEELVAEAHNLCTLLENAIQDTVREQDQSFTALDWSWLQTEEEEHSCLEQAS

T6 sequence (P53779 whole entry): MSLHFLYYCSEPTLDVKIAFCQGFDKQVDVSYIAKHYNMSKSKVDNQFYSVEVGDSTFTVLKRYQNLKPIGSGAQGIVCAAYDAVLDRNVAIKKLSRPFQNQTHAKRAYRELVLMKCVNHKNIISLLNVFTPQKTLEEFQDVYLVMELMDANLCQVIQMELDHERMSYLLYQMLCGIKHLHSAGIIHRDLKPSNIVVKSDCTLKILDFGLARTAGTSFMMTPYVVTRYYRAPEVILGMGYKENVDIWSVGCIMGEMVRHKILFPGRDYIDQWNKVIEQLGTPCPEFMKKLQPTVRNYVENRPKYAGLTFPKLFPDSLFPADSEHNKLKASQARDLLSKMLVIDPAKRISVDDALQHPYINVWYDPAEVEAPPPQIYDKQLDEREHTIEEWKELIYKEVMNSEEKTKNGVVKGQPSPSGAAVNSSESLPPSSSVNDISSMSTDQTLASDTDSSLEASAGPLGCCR
T5 sequence (P48736 whole entry): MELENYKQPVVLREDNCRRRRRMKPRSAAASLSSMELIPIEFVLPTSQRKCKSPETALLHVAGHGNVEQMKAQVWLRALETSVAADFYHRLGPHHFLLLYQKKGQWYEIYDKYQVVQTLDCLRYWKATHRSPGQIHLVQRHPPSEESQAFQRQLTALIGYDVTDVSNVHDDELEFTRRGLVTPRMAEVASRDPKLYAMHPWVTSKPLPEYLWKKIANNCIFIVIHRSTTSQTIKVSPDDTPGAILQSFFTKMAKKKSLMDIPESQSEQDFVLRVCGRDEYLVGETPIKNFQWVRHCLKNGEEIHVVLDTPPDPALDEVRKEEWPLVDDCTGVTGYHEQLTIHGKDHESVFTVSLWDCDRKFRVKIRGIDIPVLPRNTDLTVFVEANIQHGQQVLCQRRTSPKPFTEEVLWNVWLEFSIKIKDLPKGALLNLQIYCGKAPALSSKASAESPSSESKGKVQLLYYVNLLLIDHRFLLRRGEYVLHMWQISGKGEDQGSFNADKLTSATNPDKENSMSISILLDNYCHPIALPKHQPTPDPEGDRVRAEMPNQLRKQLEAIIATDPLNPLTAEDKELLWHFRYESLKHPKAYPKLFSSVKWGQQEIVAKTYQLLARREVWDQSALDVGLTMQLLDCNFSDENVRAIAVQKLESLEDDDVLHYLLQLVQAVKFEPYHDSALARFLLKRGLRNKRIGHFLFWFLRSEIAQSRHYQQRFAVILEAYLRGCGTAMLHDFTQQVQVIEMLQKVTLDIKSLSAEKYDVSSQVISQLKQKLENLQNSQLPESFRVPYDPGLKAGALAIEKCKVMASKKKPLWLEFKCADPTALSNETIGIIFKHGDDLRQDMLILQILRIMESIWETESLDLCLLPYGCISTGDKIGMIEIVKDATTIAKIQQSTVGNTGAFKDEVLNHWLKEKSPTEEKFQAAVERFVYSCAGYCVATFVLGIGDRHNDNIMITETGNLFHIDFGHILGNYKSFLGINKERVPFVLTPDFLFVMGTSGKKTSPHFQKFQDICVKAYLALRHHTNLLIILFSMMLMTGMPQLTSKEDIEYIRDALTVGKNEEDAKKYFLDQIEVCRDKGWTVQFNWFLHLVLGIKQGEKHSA
T4 sequence (Q13177 whole entry): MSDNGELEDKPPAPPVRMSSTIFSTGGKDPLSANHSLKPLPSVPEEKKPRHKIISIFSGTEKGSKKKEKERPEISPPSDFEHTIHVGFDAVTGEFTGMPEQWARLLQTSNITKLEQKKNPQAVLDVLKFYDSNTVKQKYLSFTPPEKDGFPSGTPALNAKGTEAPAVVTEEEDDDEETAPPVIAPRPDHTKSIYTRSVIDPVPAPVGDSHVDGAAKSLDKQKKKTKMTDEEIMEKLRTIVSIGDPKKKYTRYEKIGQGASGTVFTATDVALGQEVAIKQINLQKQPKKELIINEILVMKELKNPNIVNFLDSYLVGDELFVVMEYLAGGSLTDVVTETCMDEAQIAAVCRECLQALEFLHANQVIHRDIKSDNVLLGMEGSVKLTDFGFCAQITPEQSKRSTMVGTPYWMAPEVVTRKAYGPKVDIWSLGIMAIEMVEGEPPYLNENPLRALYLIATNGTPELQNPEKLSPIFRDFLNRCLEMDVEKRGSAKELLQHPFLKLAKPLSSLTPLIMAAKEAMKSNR
T7 sequence (P04049 whole entry): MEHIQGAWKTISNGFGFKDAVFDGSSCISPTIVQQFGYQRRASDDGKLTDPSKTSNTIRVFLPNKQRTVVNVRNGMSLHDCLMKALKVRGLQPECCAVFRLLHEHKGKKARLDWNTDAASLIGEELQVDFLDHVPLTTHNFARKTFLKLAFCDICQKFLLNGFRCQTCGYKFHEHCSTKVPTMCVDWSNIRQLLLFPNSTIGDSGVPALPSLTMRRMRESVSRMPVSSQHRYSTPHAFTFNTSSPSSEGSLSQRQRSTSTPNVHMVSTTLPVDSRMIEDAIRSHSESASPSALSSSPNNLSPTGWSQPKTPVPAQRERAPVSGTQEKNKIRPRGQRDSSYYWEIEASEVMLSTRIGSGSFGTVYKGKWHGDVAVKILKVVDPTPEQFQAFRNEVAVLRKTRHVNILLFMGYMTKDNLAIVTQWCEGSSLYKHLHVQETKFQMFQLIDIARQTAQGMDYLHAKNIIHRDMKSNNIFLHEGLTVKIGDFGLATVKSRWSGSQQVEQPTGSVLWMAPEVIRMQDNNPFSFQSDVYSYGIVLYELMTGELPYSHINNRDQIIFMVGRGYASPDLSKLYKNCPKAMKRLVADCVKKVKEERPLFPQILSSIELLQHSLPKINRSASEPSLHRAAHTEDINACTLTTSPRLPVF
T2 sequence (Q9Y6R4 whole entry): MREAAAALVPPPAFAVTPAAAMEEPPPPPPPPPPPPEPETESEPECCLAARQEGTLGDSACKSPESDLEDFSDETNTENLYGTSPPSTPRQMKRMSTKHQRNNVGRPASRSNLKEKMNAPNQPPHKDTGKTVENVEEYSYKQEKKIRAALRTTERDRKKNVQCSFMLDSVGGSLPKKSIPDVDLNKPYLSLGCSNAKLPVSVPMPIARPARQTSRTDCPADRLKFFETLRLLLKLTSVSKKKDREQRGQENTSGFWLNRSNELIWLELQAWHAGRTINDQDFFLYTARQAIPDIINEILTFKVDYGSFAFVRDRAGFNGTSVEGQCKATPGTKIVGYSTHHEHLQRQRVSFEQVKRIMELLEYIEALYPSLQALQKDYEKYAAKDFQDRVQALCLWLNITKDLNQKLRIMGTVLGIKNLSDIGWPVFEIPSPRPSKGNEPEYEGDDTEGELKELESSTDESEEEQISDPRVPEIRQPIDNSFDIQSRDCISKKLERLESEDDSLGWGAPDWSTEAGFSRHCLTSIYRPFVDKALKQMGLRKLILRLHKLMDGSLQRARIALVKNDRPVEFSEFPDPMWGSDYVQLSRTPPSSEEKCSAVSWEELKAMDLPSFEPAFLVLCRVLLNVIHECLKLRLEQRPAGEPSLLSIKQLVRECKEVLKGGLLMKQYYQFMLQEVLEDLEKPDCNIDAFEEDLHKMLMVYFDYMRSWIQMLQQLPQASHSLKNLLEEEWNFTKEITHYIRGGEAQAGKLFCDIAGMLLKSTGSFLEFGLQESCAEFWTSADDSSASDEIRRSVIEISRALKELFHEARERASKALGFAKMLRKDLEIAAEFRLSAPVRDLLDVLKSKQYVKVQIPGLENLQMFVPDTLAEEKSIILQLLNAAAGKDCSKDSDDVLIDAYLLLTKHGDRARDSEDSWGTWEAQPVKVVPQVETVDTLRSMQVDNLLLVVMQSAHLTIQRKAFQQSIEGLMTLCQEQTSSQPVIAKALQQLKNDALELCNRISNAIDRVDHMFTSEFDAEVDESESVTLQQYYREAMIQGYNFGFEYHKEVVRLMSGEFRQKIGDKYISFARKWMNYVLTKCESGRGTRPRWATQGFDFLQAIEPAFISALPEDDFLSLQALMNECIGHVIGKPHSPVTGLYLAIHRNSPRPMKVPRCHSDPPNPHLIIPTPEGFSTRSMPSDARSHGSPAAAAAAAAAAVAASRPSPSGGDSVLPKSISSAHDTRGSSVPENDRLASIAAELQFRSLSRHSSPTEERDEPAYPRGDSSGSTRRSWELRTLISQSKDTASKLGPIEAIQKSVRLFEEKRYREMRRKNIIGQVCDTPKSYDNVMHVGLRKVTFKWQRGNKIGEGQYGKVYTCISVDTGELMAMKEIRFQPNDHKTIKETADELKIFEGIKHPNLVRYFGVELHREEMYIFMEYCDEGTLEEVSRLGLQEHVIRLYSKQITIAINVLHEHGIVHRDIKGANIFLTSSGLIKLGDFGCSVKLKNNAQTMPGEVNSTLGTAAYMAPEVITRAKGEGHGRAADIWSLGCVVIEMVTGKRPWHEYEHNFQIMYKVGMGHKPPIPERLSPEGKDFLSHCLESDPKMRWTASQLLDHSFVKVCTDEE

Row | SMILES | RA @ 1000nM [1] [%] | RA @ 10000nM [1] [%] | RA @ 1000nM [2] [%] | RA @ 10000nM [2] [%] | RA @ 1000nM [3] [%] | RA @ 10000nM [3] [%] | RA @ 1000nM [4] [%] | RA @ 10000nM [4] [%] | RA @ 1000nM [5] [%] | RA @ 10000nM [5] [%] | RA @ 1000nM [6] [%] | RA @ 10000nM [6] [%] | RA @ 1000nM [7] [%] | RA @ 10000nM [7] [%] | RA @ 1000nM [8] [%] | RA @ 10000nM [8] [%]
1 | CN(C)CCNC(=O)c1cc2c(cnn2CC2CCCCC2)cc1Cc1ccc(F)cc1F [Compound 95, 1-(Cyclohexylmethyl)-5-(2,4-difluorobenzyl)-N-(2-(dimethylamino)ethyl)-1H-indazole-6-carboxamide] | 100 | 96 | 100 | 60 | 100 | 87 | 100 | 95 | 92 | 97 | 48 | 3.7 | 100 | 100 | 93 | 80
2 | CC(C)Cn1ncc2cc(Cc3ccc(F)cc3F)c(C(=O)NCCN(C)C)cc21 [Compound 94, 5-(2,4-Difluorobenzyl)-N-(2-(dimethylamino)ethyl)-1-isobutyl-1H-indazole-6-carboxamide] | 100 | 97 | 49 | 100 | 88 | 74 | 100 | 97 | 86 | 85 | 55 | 6.8 | 100 | 100 | 89 | 89
